Common to all, as to format: physicochemical
Series [1] is described as follows: Loading capacity (limiting organic concentration). As to conditions: 0.2 mol/L in TPH/1-octanol (95:5)%vol; 3 mol/L nitric acid. The procedure:
The organic solutions were prepared and equilibrated with 3 mol/L nitric acid as detailed in the previously described sections A) and B.
Aqueous solutions of 3 mol/L nitric acid, spiked with 600 Bq of ^152Eu and 600 Bq of ^241Am, containing different amounts of stable Eu(III) (0.004 mol/L, 0.008 mol/L, 0.016 mol/L, 0.032 mol/L, 0.064 mol/L and 0.128 mol/L), obtained dissolving the corresponding amount of Eu (NO3)3·6H2O salt in 3 mol/L nitric acid, were prepared.
600 µL of equilibrated organic phase were contacted with 600 µL of aqueous phase of the corresponding concentration of Eu(III). It was stirred vigorously by means of an oscillating shaker for 15 minutes. The phases were separated by centrifugation at 5000 rpm and 400 µL of each of the phases were taken for the determination of the concentration of ^152Eu and ^241Am, as described previously in section C).
The loading capacity was determined according to the limiting organic concentration or LOC, which is the highest concentration of metal admitted by the organic phase before the third phase appears, as a result of the organic phase separating into two phases: a light or less heavy phase formed mainly by the organic solvent and a heavy phase formed by the complex formed by the extractant and the metal. […]

The nature of series [2]: Hydrolytic stability, extraction capability after contact with 3 mol/L nitric acid. Conditions: 0.1 mol/L in n-dodecane/1-octanol (95:5)%vol; for extraction capability of Eu (III) (DEu): during the different contact time periods with 3 mol/L nitric acid. How it is done: The organic solutions of the compounds to be tested were prepared and equilibrated with 3 mol/L nitric acid, as has been indicated in sections A) and B).
Then, 700 µL of the equilibrated organic phase were put in vials of an approximate volume of 2 mL and were contacted with 700 µL of 3 mol/L nitric acid. They were stirred vigorously in an oscillating shaker for periods of 7, 15, 24, 36, 42, 50 and 66 days. After each permanent contact period with the nitric acid aqueous phase, the extraction capability of the organic solution was evaluated, taking 600 µL of the corresponding organic phase and contacting it with 600 µL of aqueous phase formed by a 3 mol/L nitric acid solution spiked with 600 Bq of ^152Eu and with 600 Bq of ^241Am. It was stirred vigorously by means of an oscillating shaker for 15 minutes. The separation of the phases was carried out by centrifugation at 5000 rpm. 400 µL of each of the phases were taken for the determination of the concentration of ^152Eu and ^241Am, as in section C).
After the permanent contact periods with the 3 mol/L nitric acid solution, the extraction capability of the organic solutions of both compounds was evaluated with 3 mol/L nitric acid solutions containing 600 Bq of ^152 Eu and 600 Bq of ^241Am.

Another series is described as follows: Radiolytic stability. As to conditions: 60Co irradiation, 4 kGy/h, up to 1000 kGy. The procedure: (§1) The tests of stability against irradiation were carried out in the NAYADE facility at CIEMAT site, with external ^60Co sources with an approximate activity of 5000 Ci, with a homogeneous irradiation flux. The dose rate applied in all the experiments was 4 kGy/h and integrated doses of 250 kGy, 500 kGy, 750 kGy and 1000 kGy were considered. The irradiation device consists of a metal cylinder which is introduced in a rack wherein the ^60CO sources are placed radially, such that the irradiation is homogeneous. The irradiation process is carried out submersing the device in a pool of water with a depth of 4 meters.
(§2) Irradiation tests of the solid compound (in the absence of solvent) and of the compound dissolved in the "n-dodecane/1-octanol (95:5)%vol" mixture, equilibrated with 3 mol/L nitric acid, were carried out. The organic solutions were prepared and equilibrated as detailed in the previous sections A) and B).
(§3) Once each programmed integrated dose was reached, the extraction capability of the organic samples was evaluated as detailed in section C).
The irradiation of compound 4 in solid form (in the absence of solvent) and dissolved at a 0.1 mol/L concentration in the "n-dodecane/1-octanol 1 (95:5)%vol" mixture, equilibrated with 3 mol/L nitric acid, was carried out. […] After each integrated dose, the extraction capability of Am(III) and Eu(III) was evaluated as described in section C. […]

A short description of series [3]: Radiolytic stability, extraction capability after irradiation. As to conditions: for DAm / DEu: after 1000 kGy. The procedure: as §1, §2, §3
The irradiation of compound 4 in solid form (in the absence of solvent) and dissolved at a 0.1 mol/L concentration in the "n-dodecane/1-octanol 1 (95:5)%vol" mixture, equilibrated with 3 mol/L nitric acid, was carried out. The applied dose rate was 4 kGy/h and the considered integrated doses were 250 kGy, 500 kGy, 750 kGy and 1000 kGy. After each integrated dose, the extraction capability of Am(III) and Eu(III) was evaluated as described in section C.
The considered integrated doses in this experiment were 500 kGy and 1000 kGy at a dose rate of 4 kGy/h.

The mark [4] stands for this setting: irradiated dissolved in n-dodecane/1-octanol (95:5)%vol, equilibrated with 3 mol/L nitric acid.
The mark [5] stands for this setting: irradiated in the absence of solvent.

On to “2-Dioctylcarbamoylmethoxy-N-[3-[(2-dioctylcarbamoyl-methoxy-acetylamino)methyl]benzyl]acetamide [Compound 4]”, for which the LOCEu in series [1] was ~ 0.03 mol/L. In addition, the DAm in series [2] (after 66 days of permanent contact with 3 mol/L nitric acid) is given as 145; in series [3] (setting [4]), 180; in series [3] (setting [5]), 540. In series [2], the “extraction capability of Eu (III) (DEu)” value was “remains constant”. Moreover, the stability against radiolysis entry in “Radiolytic stability” is on record as “very stable against radiolysis”. In addition, the DEu in series [3] (setting [4]) worked out at 780; in series [3] (setting [5]), 1000.

As for “2-Dioctylcarbamoylmethoxy-N-[3-[3-(2-dioctylcarbamoyl-methoxyacetylamino)propoxy]propyl]acetamide [Compound 18]”, the LOCEu in series [1] was ~ 0.06 mol/L. This substance came in with a DAm in series [2] (after 42 days of permanent contact with 3 mol/L nitric acid) of 280. Besides, the “extraction capability of Eu (III) (DEu)” value in series [2] is given as “remains constant”. Further, in the series “Radiolytic stability”, the stability against radiolysis entry is on record as “very stable against radiolysis”. Moreover, the DEu in series [3] (setting [4]) is reported as 964. In series [3] (up to 1000 kGy, irradiated dissolved in n-dodecane/1-octanol (95:5)%vol, equilibrated with 3 mol/L nitric acid), this substance returned a Dn of 531.

For the origin of these results see patent EP1923473B1, “Bis-diglycolamides (BISDGA) as new extractants for lanthanides [Ln(III)] and actinides [An(III)] from aqueous high-level wastes” (Universidad Autónoma de Madrid, priority 2006, dated 2008).
